Test results: PMC9856044 (Biomolecules, 2023)

Assays:
Tel22 G-quadruplex [1] = test: Thermal melting of Tel22 in potassium phosphate buffer; assay type: binding, human; settings: Tel22, r = 1.0, potassium phosphate buffer, pH = 7.0, I = 0.1 mol dm^−3; error ±0.5 °C
Experimental: (§1) Thermal melting curves for DNA, RNA and their complexes with studied compounds were determined as previously described by following the absorption change at 260 nm as a function of temperature. The absorbance of the ligands was subtracted from every curve and the absorbance scale was normalized. Tm values are the midpoints of the transition curves determined from the maximum of the first derivative and checked graphically by the tangent method. The ∆Tm values were calculated by subtracting Tm of the free nucleic acid from Tm of the complex. Every ∆Tm value here reported was the average of two measurements. The error in ∆Tm is ±0.5 °C. 5′-AGGG(TTAGGG)3–3′(Tel22) was obtained from IDT (Integrated DNA Technologies, Coralville, IA, USA). Tel22 was dissolved in 0.1 M either in sodium cacodylate or potassium phosphate buffer. The starting Tel22 oligonucleotide solution was first heated up to 95 °C for 10 min, then slowly cooled to 10 °C at the cooling rate of 1 °C/min to allow DNA oligonucleotide to adopt a G-quadruplex structure. The G-quadruplex structure was confirmed by thermal melting and CD spectra. The concentration of G quadruplex was expressed in terms of oligonucleotide structure. In fluorimetric titrations, aliquots of Tel 22 solution were added to the solution of ligands (c ~ 2 × 10^−7 M, in SI).

[2] = Solubility and aggregation (UV/Vis characterization); assay type: physicochemical; settings: sodium cacodylate buffer, I = 0.05 mol dm^−3, pH = 7.0; UV/Vis
Experimental: The UV/vis spectra were recorded on a Varian Cary 100 Bio spectrophotometer (Agilent, Santa Clara, CA, USA), CD spectra on JASCO J815 spectrophotometer (ABL&E Handels GmbH, Wien, Austria) and fluorescence spectra on a Varian Cary Eclipse spectrophotometer (Agilent, Santa Clara, CA, USA) at 25 °C using appropriate 1 cm path quartz cuvettes.
Studied compounds, 1–6 were soluble (c = 8 × 10^−4 mol dm^−3) in DMSO. […] Therefore, the stock solution of 2 was prepared fresh before use. The experiments were done in aqueous buffer (sodium cacodylate buffer, I = 0.05 mol dm^−3; pH = 7.0).
However, the shape of UV/Vis spectra of cyanine 2 changed with increasing concentration (calibration experiment in Figure S2 in SI). In addition to the dominant maximum at 432 nm (which most likely corresponds to the monomer form of the dye), the absorption band at 413 nm becomes more intense (Figure S2 in SI). Presumably, it corresponds to the aggregated form (H-aggregate). Based on the existence of an absorption band at 432 nm, only the monomer dye form is visible at high temperature (95 °C) (Figure S8b in SI). However, after cooling the solution to 25 °C, an additional band appears at 413 nm, which corresponds to the aggregated dye form.

MDA-MB-435S cells = test: MTT cytotoxicity assay, MDA-MB-435S; assay type: cell-based; settings: Homo sapiens, 72 h incubation, ± SD
Experimental: (§2) Human cervical carcinoma HeLa (GIBCO BRL, Invitrogen, Waltham, MA, USA), human melanoma MDA-MB-435S and human ovarian adenocarcinoma SK-OV-3 (ATCC-LGC Standards GmbH, Wesel, Germany) cell lines were purchased from indicated cell culture banks. Normal human skin fibroblasts were isolated from the upper arm of a donor at the Neurochemical Laboratory, Department of Chemistry and Biochemistry, School of Medicine, University of Zagreb. HeLa, MDA-MB-435S and fibroblasts were grown in Dulbecco’s Modified Eagle’s Medium (DMEM; Sigma-Aldrich, St. Louis, MI, USA) while the SK-OV-3 cell line was grown in McCoy’s 5A medium (Capricorn Scientific, Ebsdorfergrund, Germany). All media were supplemented with 10% fetal bovine serum (FBS; Sigma-Aldrich) and 50 I.U./mL penicillin and 50 μg/mL streptomycin. Cells were cultured in a humidified atmosphere of 5% CO2 at 37 °C and were sub-cultured every 3–4 days. HeLa, MDA-MB-435S, SK-OV-3 cells and fibroblasts were seeded in 96 well plates. Twenty-four hours later the cells were treated, in quadruplicate, with different concentrations of compounds (dissolved in DMSO, kept at 4 °C and protected from light). Following 72 h of incubation at 37 °C, the medium was aspired and modified 3-(4,5-dimethylthiazol-2-yl)-2,5-diphenyltetrazolium bromide (MTT) assay was used to determine the cytotoxic effect of the tested compounds. Three hours later, formazan crystals were dissolved in DMSO (0.17 mL/well), the plates were mechanically agitated for 20 min and the optical density at 600 nm was determined on a microtiter plate reader (Awareness Technology Inc., Palm City, FL, USA). The experiments were repeated three times.

[3] = molecular target: Tel22 (5′-AGGG(TTAGGG)3–3′) G-quadruplex; test: Fluorimetric titration with Tel22 in potassium phosphate buffer (K+ solution); assay type: binding, human; settings: Tel22, K+ solution; no accurate fit possible
Experimental: (§3) Materials. Polynucleotides were purchased as noted: poly A–poly U, calf thymus ctDNA, poly(dAdT)2 and poly(dGdC)2 (Sigma-Aldrich, St. Louis, MI, USA). Polynucleotides were dissolved in Na-cacodylate buffer, I = 0.05 mol dm^−3, pH = 7.0. The calf thymus ctDNA was additionally sonicated and filtered through a […]. Polynucleotide concentration was determined spectroscopically as the concentration of phosphates. Spectrophotometric titrations were performed at pH = 7.0 (I = 0.05 mol dm^−3, sodium cacodylate buffer) by adding aliquots of polynucleotide solution into the solution of the studied compound for fluorimetric experiments and CD experiments were done by adding aliquots of the compound stock solution into the solution of a polynucleotide. In fluorimetric experiments, an excitation wavelength of λexc = 425, 431, 423, 427, 406 and 407 nm, respectively, was used to avoid the inner filter effect caused due to increasing absorbance of the polynucleotide. Emission was collected in the range λem = 400–700 nm. Values for Ka obtained by processing titration data using the Scatchard equation [27], all have satisfactory correlation coefficients (≥0.98).
as §1
(§4) Binding constants (log Ka) and stoichiometry of complexes were calculated from the fluorimetric data using non-linear least-square program SPECFIT [46], in the concentration range that corresponded to 20–80% complex formed.

Fibroblasts = test: MTT cytotoxicity assay, normal human skin fibroblasts; assay type: cell-based; settings: Fibroblast, 72 h incubation, ± SD
Experimental: as §2

ds-DNA and ds-RNA = test: Thermal melting of ds-DNA and ds-RNA; assay type: binding; settings: r [compound]/[nucleotide phosphate] = 0.1
Experimental: as §1
Binding abilities of 1–6 compounds were further explored by thermal melting experiments. […]

HeLa cells = test: MTT cytotoxicity assay, HeLa; assay type: cell-based; settings: Homo sapiens, 72 h incubation, ± SD
Experimental: as §2

Tel22 G-quadruplex [4] = test: Thermal melting of Tel22 in sodium cacodylate buffer; assay type: binding, human; settings: Tel22, r = 1.0, sodium cacodylate buffer, pH = 7.0, I = 0.1 mol dm^−3; error ± 0.5 °C
Experimental: as §1

SK-OV-3 cells = test: MTT cytotoxicity assay, SK-OV-3; assay type: cell-based; settings: Homo sapiens, SK-OV-3, 72 h incubation, ± SD
Experimental: as §2

[5] = test system: Tel22 (DNA, G4) AGGGTTAGGGTTAGGGTTAGGG; test: fluorescence titration; settings: K+ (potassium phosphate, I = 0.1 M); pH 7.0, 25 °C; emission increase, no constant fitted
[6] = molecular target: Tel22 (5′-AGGG(TTAGGG)3–3′) G-quadruplex; test: Fluorimetric titration with Tel22 in sodium cacodylate buffer (Na+ solution); assay type: binding, human; settings: Tel22, sodium cacodylate buffer, pH = 7.0, I = 0.1 mol dm^−3; SPECFIT fit of fluorescence titration
Experimental: as §3, §1, §4

[7] = test system: Tel22 (DNA, G4) AGGGTTAGGGTTAGGGTTAGGG; test: fluorescence titration (SPECFIT); settings: Na+ (sodium cacodylate, I = 0.1 M); pH 7.0, 25 °C; site 1 of 2
[8] = test system: Tel22 (DNA, G4) AGGGTTAGGGTTAGGGTTAGGG; test: UV thermal melting, 260 nm; settings: Na+ (sodium cacodylate, I = 0.1 M); pH 7.0; Tel22 2 µM, r = 1.0 (compound 2 µM)

## C[n+]1c(/C=C2\Sc3ccccc3N2CCS)[se]c2ccccc21 [Compound 6, 2-((3-(2-mercaptoethyl)benzo[d]thiazol-2(3H)-ylidene)methyl)-3-methylbenzo[d][1,3]selenazol-3-ium methosulphate]
Tel22 G-quadruplex [1]
  ∆Tm: 6.9 °C
[2]
  Aggregation in aqueous buffer: significantly aggregate
MDA-MB-435S cells
  IC50: 32.8 ± 3.76 µM
[3]
  log Ka (indicated by steeper slope of titration curves): ≥ 7
Fibroblasts
  IC50: > 40 µM
ds-DNA and ds-RNA
  Effect on DNA/RNA thermal stability: did not show any impact
HeLa cells
  IC50: 30.7 ± 4.07 µM
Tel22 G-quadruplex [4]
  ∆Tm: 2.0 °C
SK-OV-3 cells
  IC50: > 40 µM

## C[n+]1c(C=C2Sc3ccccc3N2CCCS(=O)(=O)[O-])[se]c2ccccc21 [Compound 1, 3-(2-((3-methylbenzo[d][1,3]selenazol-3-ium-2-yl)methylene)benzo[d]thiazol-3(2H)-yl)propane-1-sulfonate]
[5]
  binding: yes
[6]
  logKa1 (L + G ⇆ LG): 6.93 ± 0.25
  logKa2 (LG + G ⇆ LG2): 5.69 ± 0.23
other
  melting point: > 300 °C
[7]
  logKa1: 6.93 ± 0.25
[8]
  ∆Tm: 0 °C
[2]
  Aggregation in aqueous buffer: do not form aggregates
MDA-MB-435S cells
  IC50: 18.5 ± 1.23 µM
Fibroblasts
  IC50: > 40 µM
HeLa cells
  IC50: 31.9 ± 1.14 µM
Tel22 G-quadruplex [4]
  ∆Tm: 0 °C
SK-OV-3 cells
  IC50: 32.8 ± 1.09 µM
